Results taken from ChEMBL document CHEMBL3044736, “Synthesis, characterization, solvatochromic properties, and antimicrobial evaluation of 5-acetyl-2-thioxo-dihydro-pyrimidine-4,6-dione-based chalcones” (2013).
In brackets after ≈: the same amount, converted by molar mass.

Tests used:
Format in all cases: functional
[1] = tested on: Penicillium; experiment: Antimicrobial activity against Penicillium wild strain assessed as diameter of growth inhibition zone at 250 ug/ml after 48-96 hr by agar cup diffusion method; details: read-out: DIZ
[2] = tested on: Penicillium; experiment: Antimicrobial activity against Penicillium wild strain assessed as diameter of growth inhibition zone at 100 ug/ml after 48-96 hr by agar cup diffusion method; details: read-out: DIZ
[3] = tested on: Trichophyton rubrum; experiment: Antimicrobial activity against Trichophyton rubrum MTCC 296 assessed as diameter of growth inhibition zone at 100 ug/ml after 48-96 hr by agar cup diffusion method; details: read-out: DIZ
[4] = tested on: Aspergillus clavatus; experiment: Antimicrobial activity against Aspergillus clavatus MTCC 1323 assessed as diameter of growth inhibition zone at 100 ug/ml after 48-96 hr by agar cup diffusion method; details: read-out: DIZ
[5] = tested on: Candida albicans; experiment: Antimicrobial activity against Candida albicans MTCC 227 assessed as diameter of growth inhibition zone at 100 ug/ml after 48-96 hr by agar cup diffusion method; details: read-out: DIZ
[6] = tested on: Penicillium; experiment: Antimicrobial activity against Penicillium wild strain assessed as diameter of growth inhibition zone at 50 ug/ml after 48-96 hr by agar cup diffusion method; details: read-out: DIZ
[7] = tested on: Trichophyton rubrum; experiment: Antimicrobial activity against Trichophyton rubrum MTCC 296 assessed as diameter of growth inhibition zone at 50 ug/ml after 48-96 hr by agar cup diffusion method; details: read-out: DIZ
[8] = tested on: Aspergillus clavatus; experiment: Antimicrobial activity against Aspergillus clavatus MTCC 1323 assessed as diameter of growth inhibition zone at 50 ug/ml after 48-96 hr by agar cup diffusion method; details: read-out: DIZ
[9] = tested on: Candida albicans; experiment: Antimicrobial activity against Candida albicans MTCC 227 assessed as diameter of growth inhibition zone at 50 ug/ml after 48-96 hr by agar cup diffusion method; details: read-out: DIZ
[10] = tested on: Penicillium; experiment: Antimicrobial activity against Penicillium wild strain assessed as diameter of growth inhibition zone at 25 ug/ml after 48-96 hr by agar cup diffusion method; details: read-out: DIZ
[11] = tested on: Trichophyton rubrum; experiment: Antimicrobial activity against Trichophyton rubrum MTCC 296 assessed as diameter of growth inhibition zone at 25 ug/ml after 48-96 hr by agar cup diffusion method; details: read-out: DIZ
[12] = tested on: Aspergillus clavatus; experiment: Antimicrobial activity against Aspergillus clavatus MTCC 1323 assessed as diameter of growth inhibition zone at 25 ug/ml after 48-96 hr by agar cup diffusion method; details: read-out: DIZ
[13] = tested on: Candida albicans; experiment: Antimicrobial activity against Candida albicans MTCC 227 assessed as diameter of growth inhibition zone at 25 ug/ml after 48-96 hr by agar cup diffusion method; details: read-out: DIZ
[14] = tested on: Penicillium; experiment: Antimicrobial activity against Penicillium wild strain by agar cup diffusion method
[15] = tested on: Aspergillus clavatus; experiment: Antimicrobial activity against Aspergillus clavatus MTCC 1323 by agar cup diffusion method
[16] = tested on: Pseudomonas aeruginosa; experiment: Antimicrobial activity against Pseudomonas aeruginosa MTCC 1688 assessed as diameter of growth inhibition zone at 25 ug/ml after 18-24 hr by agar cup diffusion method; details: read-out: DIZ
[17] = tested on: Escherichia coli; experiment: Antimicrobial activity against Escherichia coli MTCC 443 assessed as diameter of growth inhibition zone at 25 ug/ml after 18-24 hr by agar cup diffusion method; details: read-out: DIZ
[18] = tested on: Staphylococcus aureus; experiment: Antimicrobial activity against Staphylococcus aureus MTCC 96 assessed as diameter of growth inhibition zone at 25 ug/ml after 18-24 hr by agar cup diffusion method; details: read-out: DIZ
[19] = tested on: Streptococcus pyogenes; experiment: Antimicrobial activity against Streptococcus pyogenes MTCC 442 assessed as diameter of growth inhibition zone at 25 ug/ml after 18-24 hr by agar cup diffusion method; details: read-out: DIZ
[20] = tested on: Klebsiella pneumoniae; experiment: Antimicrobial activity against Klebsiella pneumoniae MTCC 109 by agar cup diffusion method
[21] = tested on: Escherichia coli; experiment: Antimicrobial activity against Escherichia coli MTCC 443 by agar cup diffusion method
[22] = tested on: Pseudomonas aeruginosa; experiment: Antimicrobial activity against Pseudomonas aeruginosa MTCC 1688 by agar cup diffusion method
[23] = tested on: Staphylococcus aureus; experiment: Antimicrobial activity against Staphylococcus aureus MTCC 96 by agar cup diffusion method
[24] = tested on: Streptococcus pyogenes; experiment: Antimicrobial activity against Streptococcus pyogenes MTCC 442 by agar cup diffusion method
[25] = tested on: Trichophyton rubrum; experiment: Antimicrobial activity against Trichophyton rubrum MTCC 296 by agar cup diffusion method
[26] = tested on: Candida albicans; experiment: Antimicrobial activity against Candida albicans MTCC 227 by agar cup diffusion method
[27] = tested on: Klebsiella pneumoniae; experiment: Antimicrobial activity against Klebsiella pneumoniae MTCC 109 assessed as diameter of growth inhibition zone at 250 ug/ml after 18-24 hr by agar cup diffusion method; details: read-out: DIZ
[28] = tested on: Pseudomonas aeruginosa; experiment: Antimicrobial activity against Pseudomonas aeruginosa MTCC 1688 assessed as diameter of growth inhibition zone at 250 ug/ml after 18-24 hr by agar cup diffusion method; details: read-out: DIZ
[29] = tested on: Escherichia coli; experiment: Antimicrobial activity against Escherichia coli MTCC 443 assessed as diameter of growth inhibition zone at 250 ug/ml after 18-24 hr by agar cup diffusion method; details: read-out: DIZ
[30] = tested on: Staphylococcus aureus; experiment: Antimicrobial activity against Staphylococcus aureus MTCC 96 assessed as diameter of growth inhibition zone at 250 ug/ml after 18-24 hr by agar cup diffusion method; details: read-out: DIZ
[31] = tested on: Streptococcus pyogenes; experiment: Antimicrobial activity against Streptococcus pyogenes MTCC 442 assessed as diameter of growth inhibition zone at 250 ug/ml after 18-24 hr by agar cup diffusion method; details: read-out: DIZ
[32] = tested on: Klebsiella pneumoniae; experiment: Antimicrobial activity against Klebsiella pneumoniae MTCC 109 assessed as diameter of growth inhibition zone at 100 ug/ml after 18-24 hr by agar cup diffusion method; details: read-out: DIZ
[33] = tested on: Pseudomonas aeruginosa; experiment: Antimicrobial activity against Pseudomonas aeruginosa MTCC 1688 assessed as diameter of growth inhibition zone at 100 ug/ml after 18-24 hr by agar cup diffusion method; details: read-out: DIZ
[34] = tested on: Escherichia coli; experiment: Antimicrobial activity against Escherichia coli MTCC 443 assessed as diameter of growth inhibition zone at 100 ug/ml after 18-24 hr by agar cup diffusion method; details: read-out: DIZ
[35] = tested on: Staphylococcus aureus; experiment: Antimicrobial activity against Staphylococcus aureus MTCC 96 assessed as diameter of growth inhibition zone at 100 ug/ml after 18-24 hr by agar cup diffusion method; details: read-out: DIZ
[36] = tested on: Streptococcus pyogenes; experiment: Antimicrobial activity against Streptococcus pyogenes MTCC 442 assessed as diameter of growth inhibition zone at 100 ug/ml after 18-24 hr by agar cup diffusion method; details: read-out: DIZ
[37] = tested on: Klebsiella pneumoniae; experiment: Antimicrobial activity against Klebsiella pneumoniae MTCC 109 assessed as diameter of growth inhibition zone at 50 ug/ml after 18-24 hr by agar cup diffusion method; details: read-out: DIZ
[38] = tested on: Pseudomonas aeruginosa; experiment: Antimicrobial activity against Pseudomonas aeruginosa MTCC 1688 assessed as diameter of growth inhibition zone at 50 ug/ml after 18-24 hr by agar cup diffusion method; details: read-out: DIZ
[39] = tested on: Escherichia coli; experiment: Antimicrobial activity against Escherichia coli MTCC 443 assessed as diameter of growth inhibition zone at 50 ug/ml after 18-24 hr by agar cup diffusion method; details: read-out: DIZ
[40] = tested on: Staphylococcus aureus; experiment: Antimicrobial activity against Staphylococcus aureus MTCC 96 assessed as diameter of growth inhibition zone at 50 ug/ml after 18-24 hr by agar cup diffusion method; details: read-out: DIZ
[41] = tested on: Streptococcus pyogenes; experiment: Antimicrobial activity against Streptococcus pyogenes MTCC 442 assessed as diameter of growth inhibition zone at 50 ug/ml after 18-24 hr by agar cup diffusion method; details: read-out: DIZ
[42] = tested on: Klebsiella pneumoniae; experiment: Antimicrobial activity against Klebsiella pneumoniae MTCC 109 assessed as diameter of growth inhibition zone at 25 ug/ml after 18-24 hr by agar cup diffusion method; details: read-out: DIZ
[43] = tested on: Trichophyton rubrum; experiment: Antimicrobial activity against Trichophyton rubrum MTCC 296 assessed as diameter of growth inhibition zone at 250 ug/ml after 48-96 hr by agar cup diffusion method; details: read-out: DIZ
[44] = tested on: Aspergillus clavatus; experiment: Antimicrobial activity against Aspergillus clavatus MTCC 1323 assessed as diameter of growth inhibition zone at 250 ug/ml after 48-96 hr by agar cup diffusion method; details: read-out: DIZ
[45] = tested on: Candida albicans; experiment: Antimicrobial activity against Candida albicans MTCC 227 assessed as diameter of growth inhibition zone at 250 ug/ml after 48-96 hr by agar cup diffusion method; details: read-out: DIZ

Structure (SMILES): O=C(/C=C/c1ccc(Cl)cc1)C1C(=O)NC(=S)NC1=O
- zone of inhibition at 250 µg/mL [1]: 25 mm
- zone of inhibition at 100 µg/mL [2]: 23 mm
- zone of inhibition at 100 µg/mL [3]: 21 mm
- zone of inhibition at 100 µg/mL [4]: 22 mm
- zone of inhibition at 100 µg/mL [5]: 22 mm
- zone of inhibition at 50 µg/mL [6]: 22 mm
- zone of inhibition at 50 µg/mL [7]: 20 mm
- zone of inhibition at 50 µg/mL [8]: 20 mm
- zone of inhibition at 50 µg/mL [9]: 21 mm
- zone of inhibition at 25 µg/mL [10]: 19 mm
- zone of inhibition at 25 µg/mL [11]: 18 mm
- zone of inhibition at 25 µg/mL [12]: 18 mm
- zone of inhibition at 25 µg/mL [13]: 20 mm
- MFC [14]: > 1000 µg/mL
- MIC [14]: > 1000 µg/mL
- MFC [15]: 500 µg/mL (≈ 1620 µM)
- MIC [15]: 500 µg/mL (≈ 1620 µM)
- zone of inhibition at 25 µg/mL [16]: 11 mm
- zone of inhibition at 25 µg/mL [17]: 11 mm
- zone of inhibition at 25 µg/mL [18]: 11 mm
- zone of inhibition at 25 µg/mL [19]: 11 mm
- MBC [20]: 125 µg/mL (≈ 405 µM)
- MIC [20]: 100 µg/mL (≈ 324 µM)
- MBC [21]: 125 µg/mL (≈ 405 µM)
- MIC [21]: 125 µg/mL (≈ 405 µM)
- MBC [22]: 250 µg/mL (≈ 810 µM)
- MIC [22]: 200 µg/mL (≈ 648 µM)
- MBC [23]: 100 µg/mL (≈ 324 µM)
- MIC [23]: 100 µg/mL (≈ 324 µM)
- MBC [24]: 125 µg/mL (≈ 405 µM)
- MIC [24]: 100 µg/mL (≈ 324 µM)
- MFC [25]: > 1000 µg/mL
- MIC [25]: > 1000 µg/mL
- MFC [26]: 500 µg/mL (≈ 1620 µM)
- MIC [26]: 500 µg/mL (≈ 1620 µM)
- zone of inhibition at 250 µg/mL [27]: 20 mm
- zone of inhibition at 250 µg/mL [28]: 15 mm
- zone of inhibition at 250 µg/mL [29]: 19 mm
- zone of inhibition at 250 µg/mL [30]: 15 mm
- zone of inhibition at 250 µg/mL [31]: 19 mm
- zone of inhibition at 100 µg/mL [32]: 17 mm
- zone of inhibition at 100 µg/mL [33]: 13 mm
- zone of inhibition at 100 µg/mL [34]: 17 mm
- zone of inhibition at 100 µg/mL [35]: 13 mm
- zone of inhibition at 100 µg/mL [36]: 17 mm
- zone of inhibition at 50 µg/mL [37]: 15 mm
- zone of inhibition at 50 µg/mL [38]: 12 mm
- zone of inhibition at 50 µg/mL [39]: 14 mm
- zone of inhibition at 50 µg/mL [40]: 12 mm
- zone of inhibition at 50 µg/mL [41]: 14 mm
- zone of inhibition at 25 µg/mL [42]: 13 mm
- zone of inhibition at 250 µg/mL [43]: 22 mm
- zone of inhibition at 250 µg/mL [44]: 22 mm
- zone of inhibition at 250 µg/mL [45]: 23 mm
